Source: US20090137643A1, “Methods for Inhibiting or Reversing Tau Filament Fibrillization” (priority 2003, published 2009)
“And” between values parts separate entries of the source, which are not always exact repeats. Equal entries are not always repeated. “Also recorded” adds a separate entry of the source. Where two headings read alike, the source gives them in different places.

Key:
Type in all cases: biochemical
htau40 = biological target: T1, htau40 (Homo sapiens, UniProt P10636); assay: Tau aggregation: arachidonic acid-induced htau40 fibrillization, quantitative transmission electron microscopy; parameters: IC50 for inhibition of tau fibrillization relative to molar concentration of arachidonic acid: unit not given here; details: for filament length distribution versus DMSO vehicle control: 3 hours at 37° C.; for IC50: N744 0.12-4.1 μM
T1 construct: polyhistidine; made in house
T1 sequence (P10636 1-441 isoform P10636-8): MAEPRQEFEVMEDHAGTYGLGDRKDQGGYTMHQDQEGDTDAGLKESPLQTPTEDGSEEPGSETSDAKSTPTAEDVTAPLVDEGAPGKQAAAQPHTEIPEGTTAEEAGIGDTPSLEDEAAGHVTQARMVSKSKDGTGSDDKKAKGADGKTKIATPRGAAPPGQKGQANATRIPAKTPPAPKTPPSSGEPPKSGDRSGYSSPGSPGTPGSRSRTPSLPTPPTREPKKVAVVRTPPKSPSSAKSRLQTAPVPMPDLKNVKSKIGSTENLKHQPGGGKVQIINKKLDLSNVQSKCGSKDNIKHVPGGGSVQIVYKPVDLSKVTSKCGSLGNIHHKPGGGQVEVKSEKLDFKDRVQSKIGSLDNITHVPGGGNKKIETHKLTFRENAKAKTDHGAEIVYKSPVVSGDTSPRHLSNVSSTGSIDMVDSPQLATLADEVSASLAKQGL
Description: Tau Aggregation. Purified recombinant htau40 was polymerized as described previously (King et al., Biochemistry 38: 14851-14859 (1999); Wilson et al., Am. J. Pathol 150: 2181-2195 (1997); King et al., J. Neurochem 74: 1749-1757 (2000)). Under standard conditions, 4 μM (final concentration) htau40 was incubated with arachidonic acid in Assembly Buffer (10 mM 4-[2-hydroxyethyl]-1-piperazineethanesulfonic acid, 100 mM NaCl, and 5 mM DTT) at either room temperature or at 37° C. Fibrillization was induced by the addition of arachidonic acid (75-100 μM) and continued for 3 to 6 hours until analyzed by electron microscopy as described below. When present, N744 final concentration varied between 0.12 and 4.1 μM in aggregation assays. (N744 final concentration of up to 4.7 μM was used in disaggregation assays (see below)). Control reactions were normalized for DMSO vehicle, which was limited to no more than 5% (v/v) in all reactions.
(§1) Transmission Electron Microscopy. Aliquots (50 μl) of aggregation and disaggregation reactions were removed, fixed with glutaraldehyde (2%), and adsorbed (1 minute) onto 300 mesh formvar/carbon-coated copper grids (Electron Microscopy Sciences; Ft. Washington, Pa.). The resultant grids were washed with water, stained (1 minute) with 2% uranyl acetate (Electron Microscopy Sciences), washed again with water, blotted dry, and viewed in a Phillips CM 12 microscope operated at 65 kV. Three to five random images from each experimental condition were captured on film at 22,000× magnification, digitized, calibrated, and imported into Optimas 6.5.1 for quantitation of filament length and number as described previously (King et al., J. Neurochem 74: 1749-1757 (2000). An individual filament is defined as any object greater than 50 nm in its long axis. Filaments were counted manually. Filament counts are reported as an average±standard deviation for both total filament length and total filament number. Length distributions were quantified in 25 nm (assembly) or 50 nm (disassembly) wide bins.

htau40 filaments = biological target: T2, htau40 filaments (Homo sapiens, UniProt P10636); assay: Tau disaggregation: preformed htau40 filaments, quantitative electron microscopy
T2 construct: polyhistidine; made in house
T2 sequence (P10636 1-441 isoform P10636-8): as above
Description: Tau Disaggregation. Solutions of purified htau40 (4 μM) were polymerized under standard conditions as described above for 3.5 hours, then divided into two separate tubes. One tube received N744 at a final concentration of 4.7 μM, whereas the second tube received DMSO vehicle alone. Aliquots were removed from each sample after 0, 1, 3, 5, 9, 12, and 19 hours incubation and subjected to the electron microscopy assay described below. Control (no N744) reactions were normalized for DMSO vehicle, which was kept below 5.7% (v/v) in all reactions.
as §1
N744 Promotes tau Filament Disaggregation. […] To test this hypothesis, htau40 (4 μM) was polymerized with arachidonic acid (75 μM) over a 3.5 hour period after which time equal aliquots were treated with N744 (4.7 μM) or DMSO vehicle alone and filament numbers and lengths were measured over a 19 hour “chase” by electron microscopy. In the absence of N744, total htau40 filament length decreased 23±4% over this time period (FIG. 4). Because sample dilution was only 6% in the experimental paradigm, it appeared that DMSO alone destabilized tau filaments at these concentrations. In contrast, addition of N744 (4.7 μM) led to a more rapid decrease in total filament length so that 87±13% of total filament length was lost over the 19 hour time course. The initial rate of filament loss was well modeled as a first order decay (r^2=0.981; k=0.12±0.01 h^−1) under these conditions (FIG. 4).

Aβ1-40 = biological target: T3, Aβ1-40 (Homo sapiens, UniProt P05067); assay: Aβ1-40 aggregation, turbidity at 400 nm; details: Aβ1-40 20 μM, 4.1 μM N744, 5 hours
T3 construct: Human Aβ1-40 (Bachem; Philadelphia, Pa.); purchased Bachem
T3 sequence (P05067 672-711 limits assumed): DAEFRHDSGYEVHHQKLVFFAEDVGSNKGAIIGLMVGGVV
Description: Aβ1-40 Aggregation. Aggregation was initiated by diluting the Aβ stock solution to 20 μM final concentration in aggregation buffer (150 mM NaCl, 10 mM 2-[N-morpholino]ethanesulfonic acid, pH 6.2; final volume 300 μl). Turbidity resulting from Aβ aggregation in the presence (4.1 μM final concentration) and absence of […] was monitored as a function of time in a Beckman DU640B spectrophotometer at 400 nm versus a DMSO vehicle blank (Snyder et al., Biophys 67: 1216-1228 (1994); Evans et al., Proc. Natl. Acad. Sci U.S.A. 92: 763-767 (1995)). Cuvettes were vortexed before each reading. […] Selectivity of tau Fibrillization Antagonism. […] To determine whether amyloid binding was accompanied by fibrillization inhibitory activity, the ability of […] to inhibit Aβ1-40 assembly was examined. In the absence of ligand, Aβ1-40 (20 μM) polymerized spontaneously after a lag of about 80 minutes.

amylin = biological target: T4, amylin (Homo sapiens, UniProt P10997); assay: Amylin aggregation, qualitative electron microscopy; details: amylin 50 μM, 4.1 μM N744, 24 hour period
T4 construct: purchased Bachem
T4 sequence (P10997 34-70 limits assumed): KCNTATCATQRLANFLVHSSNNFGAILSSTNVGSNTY
Description: Amylin Aggregation. Aggregation was initiated by diluting the peptide in 10 mM Tris-HCl, pH 7.3 to a final concentration of 50 μM (Goldsbury et al., J. Struct. Biol. 130: 352-362 (2000)) in the presence or absence of 4.1 μM N744. Aliquots were removed after 0, 1, 3, 5, 7, and 24 hours and prepared for EM as described above.
The activity of N744 on another amyloid-forming protein, amylin (Goldsbury et al., J. Struct. Biol. 130: 352-362 (2000)), was also examined.

[1] = htau40 4 μM, arachidonic acid 75 μM, 3.5 hours at 37° C.

What does the source list for CCC(/C=C1\Sc2ccc(OC)cc2N1CCO)=C\c1sc2ccc(OC)cc2[n+]1CCO [N744, 3-(2-hydroxyethyl)-2-[2-[[3-(2-hydroxyethyl)-5-methoxy-2-benzothiazolylidene]methyl]-1-butenyl]-5-methoxybenzothiazolium]?
IC50 for inhibition of tau fibrillization relative to molar concentration of arachidonic acid (htau40): < 0.01; tau fibrillization (total number or total length of filaments) (htau40; 4.1 μM N744, about 1:1 with htau40 4 μM, arachidonic acid 75 μM): greatly inhibited; filament length distribution versus DMSO vehicle control (htau40; N744 ≧1.2 μM, htau40 4 μM): significant shortening; Hill slope, total filament length (htau40; [1]): 1.84±0.14; Hill slope, total filament number (htau40; [1]): 1.61±0.10; IC50 (htau40; htau40 4 μM, arachidonic acid 75 μM, 3.5 hours at 37° C., read-out: IC50, inhibition of total filament length): 294 nM and < 300 nM and ~300 nM; IC50 (htau40; htau40 4 μM, arachidonic acid 75 μM, 3.5 hours at 37° C., read-out: IC50, inhibition of total filament number): 272 ± 17 nM; filament length distribution versus DMSO vehicle control (htau40; low N744 concentrations (≦410 nM), htau40 4 μM): did not differ significantly; net first order rate of filament loss, corrected for dilution and DMSO vehicle (htau40 filaments; 4.7 μM N744, htau40 4 μM): 0.10 ± 0.02 h⁻¹; initial first order rate of decrease of total filament length (htau40 filaments; 4.7 μM N744 added to filaments from htau40 4 μM, 19 hour chase): 0.12 ± 0.01 h⁻¹; filament number per length bin relative to DMSO only control (htau40 filaments; 19 hours, 4.7 μM N744, 50 nm bins): significantly fewer filaments in every bin; total filament length as % of vehicle only control (htau40 filaments; after 19 hours incubation with 4.7 μM N744): 13±2%; total filament length lost (htau40 filaments; over 19 hour time course, 4.7 μM N744): 87±13%; effect on Aβ1-40 fibrillization (Aβ1-40): did not appreciably modulate the extent or half-life; also recorded: little effect; effect on amylin fibrillization (amylin): did not interfere; also recorded: did not modulate
